# Reference: publication PMC7248907, “Naphthoquinones as Covalent Reversible Inhibitors of Cysteine Proteases—Studies on Inhibition Mechanism and Kinetics” (Molecules, 2020)
# pEC50, pIC50, pKi: −log10 of the molar value. “And” between values parts separate entries of the source, which are not always exact repeats. Equal entries are not always repeated. “Also recorded” adds a separate entry of the source. Where two headings read alike, the source gives them in different places.
# Tests used:
# cathepsin L [1] = target: T1, cathepsin L (Homo sapiens, UniProt P07711); assay: Fluorometric cathepsin L inhibition assay (Cbz-Phe-Arg-AMC); format: biochemical; set-up: purchased Calbiochem, Merck Millipore; settings: for Cath. L k3 / Cath. L k4: second inhibition step; for Cath. L k3: forward rate; for Cath. L k4: off-rate; for Cath. L t1/2: half-life of final complex, 0.693/k4; for Cath. L ΔEreac: reaction energy of second inhibition step from k3/k4; for inhibition at 20 µM: at 20 µM inhibitor, read-out: Cath. L % inh.
# T1 sequence (P07711 114-333): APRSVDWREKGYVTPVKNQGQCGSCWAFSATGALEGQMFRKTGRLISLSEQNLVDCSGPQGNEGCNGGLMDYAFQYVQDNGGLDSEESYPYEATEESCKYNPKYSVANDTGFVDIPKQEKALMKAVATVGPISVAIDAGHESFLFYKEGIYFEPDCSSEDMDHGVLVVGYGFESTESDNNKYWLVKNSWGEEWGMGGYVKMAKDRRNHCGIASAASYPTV
# [2] = target: T2, NS3/NS2B protease of the Dengue virus (DENV PR) (Dengue virus type 2, UniProt P29990); assay: Fluorometric DENV NS2B/NS3 protease assay (Boc-Gly-Arg-Arg-AMC); format: biochemical; settings: for inhibition at 20 µM: at 20 µM inhibitor, read-out: DENV PR % inh.
# T2 construct: the NS3/NS2B protease of the Dengue virus (DENV PR)
# T2 sequence (P29990 1346-1475): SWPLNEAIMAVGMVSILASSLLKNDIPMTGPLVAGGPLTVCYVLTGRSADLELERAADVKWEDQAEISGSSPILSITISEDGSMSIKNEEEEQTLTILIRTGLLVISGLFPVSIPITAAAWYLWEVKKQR
# T2 sequence (P29990 1476-1653): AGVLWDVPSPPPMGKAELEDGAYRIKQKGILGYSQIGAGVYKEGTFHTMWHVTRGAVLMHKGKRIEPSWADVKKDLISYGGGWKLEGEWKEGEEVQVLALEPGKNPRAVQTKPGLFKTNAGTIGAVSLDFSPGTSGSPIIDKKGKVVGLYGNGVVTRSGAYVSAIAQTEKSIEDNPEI
# rhodesain [3] = target: T3, rhodesain (Trypanosoma brucei rhodesiense, UniProt Q95PM0); assay: Dilution assay (reversibility), rhodesain; format: biochemical; settings: 5×IC50, 50-fold dilution; data not shown
# T3 construct: made in house; host or cells: Pichia pastoris
# T3 sequence (Q95PM0 entry or part of it): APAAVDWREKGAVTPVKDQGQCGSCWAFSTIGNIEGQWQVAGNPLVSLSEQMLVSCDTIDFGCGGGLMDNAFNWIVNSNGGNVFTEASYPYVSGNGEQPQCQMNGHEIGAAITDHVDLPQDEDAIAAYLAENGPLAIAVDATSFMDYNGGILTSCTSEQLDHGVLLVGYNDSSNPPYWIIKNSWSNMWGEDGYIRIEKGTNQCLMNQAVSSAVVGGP
# rhodesain [4] = target: T3, rhodesain; assay: Hydrolysis assay LC/MS (ester hydrolysis by rhodesain); format: biochemical; settings: 24 h incubation with rhodesain, 25 °C
# Procedure: As reported previously for benzyl esters of the tested dipeptide sequence, we raised the hypothesis also in the current case, that the observed ester cleavage of the rhodesain–inhibitor adduct (Figure 5) might occur by rhodesain-catalyzed enzymatic hydrolysis. To verify this hypothesis, we incubated compounds 1, 2 (benzyl esters), compound 6 (methyl ester) and compound 8 (tert-butyl ester) for 24 h with rhodesain. The reaction mixtures were subsequently analyzed by LC–MS.
# In fact, we found ester hydrolysis for the benzyl and methyl esters, but not for the tert-butyl ester. […] The unconverted ester 1 was eluted at tR = 3.19 min. Upon incubation with rhodesain, a peak at tR = 1.03 min was observed matching the retention time of the reference acid 3. […]
# triplicates at different time points (0, 30, 60, 120 min) and reactions were initiated by the addition of […]
# Hydrolysis assay – LC/MS:
# Hydrolysis assays were performed as described previously.[12] To a solution of rhodesain […]
# 2 mM DTT) 1 μL of either cpd. 1, 2, 6 or 8 in DMSO (20 mM) was added and the mixtures was incubated for 24 h at 25 °C. As negative reaction control, 99 μL assay buffer was treated with pure cpd. 1, 2, 6 or 8 in DMSO (20 mM) without rhodesain. […]
# (§1) (20 mM) was added and the absorbance was monitored for 2 h at 25 °C with a Tecan Spark 10M (λabs: […]
# cathepsin L [5] = target: T1, cathepsin L; assay: Dilution assay (reversibility), cathepsin L; settings: 5×IC50, 15 min incubation, 50-fold dilution
# Procedure: Then, the mixture was diluted by 50-fold to yield a final inhibitor concentration of 10% of the IC50 concentration.
# Fluorometric assays for cathepsin B and cathepsin L (Calbiochem, Merck
# Millipore) were performed as described previously.[7,8] Cbz-Phe-Arg-AMC was used as substrate
# (final conc.: 100 μM for cathepsin B, 6.5 μM for cathepsin L) in assay buffer (50 mM Tris, pH 6.5,
# Recombinantly expressed rhodesain (0.9 mg/mL) or cathepsin L (Calbiochem, Merck Millipore) were
# diluted 1:100 in enzyme buffer (rhodesain: 50 mM sodium acetate, pH 5.5, 5 mM EDTA, 200 mM
# NaCl and 2 mM DTT; cathepsin L: 50 mM Tris, pH 6.5, 5 mM EDTA, 200 mM NaCl and 2 mM DTT)
# and preincubated for 1 h at room temperature. 54 μL of the respective enzyme solution was treated
# enzyme-inhibitor reactions were incubated for 15 min at room temperature to ensure complete
# inhibition. 1.2 μL of each reaction mixture was diluted with 57.3 μL of the respective assay buffer
# (rhodesain: 50 mM sodium acetate, pH 5.5, 5 mM EDTA, 200 mM NaCl, 0.005% Brij; cathepsin L:
# Phe-Arg-AMC in DMSO (final conc.: 10 μM for rhodesain, 6.5 μM for cathepsin L) and monitored
# with a Tecan Infinite M200 Pro plate reader (λ ex: 380 nm/λ em: 460 nm).
# rhodesain [6] = target: T3, rhodesain; assay: biochemical; format: biochemical; settings: for fold improvement of rhodesain inhibition, acid compared to benzyl ester: 3 compared to 1, 4 compared to 2; for Rhod. t1/2: half-life of final complex, 0.693/k4; for Rhod. ΔEreac: reaction energy of second inhibition step from k3/k4; for Rhod. k3 / Rhod. k4: second inhibition step; for Rhod. k3: forward rate; for Rhod. k4: off-rate; for inhibition at 20 µM: at 20 µM inhibitor, read-out: Rhod. % inh.
# cathepsin B = target: T4, cathepsin B (Homo sapiens, UniProt P07858); assay: Fluorometric cathepsin B inhibition assay (Cbz-Phe-Arg-AMC); format: biochemical; settings: for inhibition at 20 µM: at 20 µM inhibitor, read-out: Cath. B % inh.
# T4 construct: purchased Calbiochem, Merck Millipore
# [7] = system: T. b. brucei 449 cell line; assay: T. b. brucei cell survival assay (ATPlite); format: cell-based; settings: Trypanosoma brucei, 48 h; read-out: EC50 antitrypanosomal activity
# Procedure: Benzyl ester 2 was tested for its antitrypanosomal activity as described previously.
# 5. T. b. brucei cell survival assay
# Toxicity of 2 against trypanosomes ( T. b. brucei 449 cell line) were determined via an ATPlite assay as described previously[13–15] using the cellular ATP levels as a proxy for cell viability. 2 (5 mM stock solution in DMSO) was first diluted 1:3 in medium, followed by a 1:10 dilution step in a microplate and ten subsequent 1:2 dilution steps. 90 μL HMI-9 medium containing 2500 cells/mL were distributed in 96-well microplates (PerkinElmer). 10 μL of the 1:2 dilution step preparations of the tested compounds were added to the 90 μL cell suspension leading to final concentrations from 16.67 μM to 32.55 nM in the microplates. As a negative control, addition of 0.3% of DMSO corresponding to the highest DMSO concentration added by compound application was used. 10% DMSO was used as a positive control, since at this DMSO concentration, all cells die. […] 50 μL of ATPlite 1 step solution (PerkinElmer) was added to each well of the microplate and luminescence measured at room temperature with an Infinite® M200 PRO plate reader (Tecan Trading AG). The measured values were plotted against the compound concentrations top yield the dose-response curve. The EC 50 values were calculated using GraFit version 5.013 (Erithacus Software Ltd.).
# rhodesain [8] = target: T3, rhodesain; assay: Hydrolysis assay UV-Vis (ester hydrolysis by rhodesain); format: biochemical; settings: for half-life at 250 µM: Trypanosoma brucei rhodesiense, rhodesain enzyme solution, pH 5.5, absorbance at 400 nm vs time, read-out: t1/2 of ester hydrolysis by rhodesain; for turnover curve of absorbance at 400 nm vs. time with rhodesain: monitored for 2 h at 25 °C
# Procedure: Since the esters and the free carboxylic acid have different UV-Vis characteristics, we recorded time-dependent absorbance spectra at 400 nm (Figure 9).
# Figure 9 Kinetic analysis of the ester hydrolysis by rhodesain. […]
# Hydrolysis assay – UV-Vis:
# To a solution of rhodesain (10 μg/mL) in 197.5 μL reaction buffer (50 mM sodium acetate, pH 5.5,
# as §1
# rhodesain [9] = target: T3, rhodesain; assay: Dialysis assay (reversibility), rhodesain; format: biochemical; settings: 20×IC50, 30 min preincubation, dialysis up to 120 min
# [10] = final complex, Dixon fit of vS vs [I], read-out: Cath. L Ki^* Method 2
# [11] = final high-affinity complex, Ki/(1+k3/k4), read-out: Cath. L Ki^* Method 1
# [12] = initial complex, Dixon fit of vi vs [I], read-out: Cath. L Ki Method 2
# [13] = initial non-covalent complex, from kobs vs [I], read-out: Cath. L Ki Method 1
# [14] = reversible, time-dependent inhibition, final high-affinity complex, mean of method 1 and method 2, read-out: Cath. L Ki^*
# [15] = approximate value, read-out: Ki of initial non-covalent complex, CathL
# [16] = approximate value, read-out: Ki of initial non-covalent complex, Rhod
# [17] = final complex, Dixon fit of vS vs [I], read-out: Rhod. Ki^* Method 2
# [18] = final high-affinity complex, Ki/(1+k3/k4), read-out: Rhod. Ki^* Method 1
# [19] = initial complex, Dixon fit of vi vs [I], read-out: Rhod. Ki Method 2
# [20] = initial non-covalent complex, from kobs vs [I], read-out: Rhod. Ki Method 1
# [21] = reversible, time-dependent inhibition, final high-affinity complex, mean of method 1 and method 2, read-out: Rhod. Ki^*
SMILES,inhibition at 20 µM [2] [%],"reactivation of enzyme activity after dilution, rhodesain (rhodesain [3])","reactivation of enzyme activity after dilution, cathepsin L (cathepsin L [5])",pKi (rhodesain [6]; read-out: Rhod. Ki),inhibition at 20 µM (cathepsin B) [%],pKi (cathepsin L [1]; [10]),pKi (cathepsin L [1]; [11]),pKi (cathepsin L [1]; [12]),pKi (cathepsin L [1]; [13]),pKi (cathepsin L [1]; [14]),Cath. L k3 (cathepsin L [1]) [s⁻¹],Cath. L k4 (cathepsin L [1]) [s⁻¹],recovery of rhodesain activity by dialysis (rhodesain [9]),inhibition at 20 µM (cathepsin L [1]) [%],inhibition at 20 µM (rhodesain [6]) [%],also measured
"CC(C)CC(NC(=O)C(Cc1ccccc1)NC1=C(Cl)C(=O)c2ccccc2C1=O)C(=O)OCc1ccccc1 [Compound 1, Benzyl-N-(3-chloro-1,4-dioxo-1,4-dihydronaphthalen-2-yl)-L-phenylalanyl-L-leucinate]",41,40–50%,full reactivation; also recorded: nearly fully recovered,5.54,53,–,–,–,–,–,–,–,–,–,–,"pKi (cathepsin L [1]; from plots of IC50 vs substrate concentration (Cheng–Prusoff), read-out: Cath. L Ki): 5.94; ester hydrolysis by rhodesain (LC–MS) (rhodesain [4]): rhodesain-catalyzed ester hydrolysis"
CC(C)C[C@H](NC(=O)[C@H](Cc1ccccc1)NC1=C(C#N)C(=O)c2ccccc2C1=O)C(=O)OCc1ccccc1 [Compound 2],–,–,full reactivation; also recorded: nearly fully recovered,6.74,–,7.27,7.92,6.52,6.80,7.48,0.0148,0.0012,–,–,–,"k3, cathepsin L (cathepsin L [1]; Method 1): 0.0148 s⁻¹; k4, cathepsin L (cathepsin L [1]; Method 1): 0.0012 s⁻¹; half-life t1/2 of final complex, cathepsin L (cathepsin L [1]; calculated by 0.693/k4): around 10 min; pIC50 ([2]; [S] = 100 µM (Boc-Gly-Arg-Arg-AMC)): 4.39; pEC50 [7]: 6.92; half-life at 250 µM (rhodesain [8]): 3.41 min; turnover curve of absorbance at 400 nm vs. time with rhodesain (rhodesain [8]): hyperbolic turnover curves; pKi (cathepsin B; read-out: Cath. B Ki): 5.72"
CC(C)C[C@H](NC(=O)[C@H](Cc1ccccc1)NC1=C(Cl)C(=O)c2ccccc2C1=O)C(=O)O [Compound 3],43,full reactivation,full reactivation,–,25,7.21,7.28,6.46,6.35,7.24,0.0052,0.0007,the enzymatic activity was restored,–,–,"fold improvement of cathepsin L inhibition, acid compared to benzyl ester (cathepsin L [1]; 3 compared to ester 1): 20 fold; pKi (cathepsin L [1]; [15]): ~6.40; Cath. L t1/2 (cathepsin L [1]): 16.5 min; Cath. L ΔEreac (cathepsin L [1]): -1.2 kcal/mol; fold improvement of rhodesain inhibition, acid compared to benzyl ester (rhodesain [6]): ca. 120 fold; pKi (rhodesain [6]; [16]): ~7.22; pKi (rhodesain [6]; [17]): 7.44; pKi (rhodesain [6]; [18]): 7.96; Rhod. t1/2 (rhodesain [6]): 19.25 min; pKi (rhodesain [6]; [19]): 7.20; pKi (rhodesain [6]; [20]): 7.24; Rhod. ΔEreac (rhodesain [6]): -0.85 kcal/mol; pKi (rhodesain [6]; [21]): 7.62; Rhod. k3 (rhodesain [6]): 0.0025 s⁻¹; Rhod. k4 (rhodesain [6]): 0.0006 s⁻¹"
CC(C)C[C@H](NC(=O)[C@H](Cc1ccccc1)NC1=C(C#N)C(=O)c2ccccc2C1=O)C(=O)O [Compound 4],38,full reactivation,full reactivation,–,45,7.82,7.72,7.04,6.89,7.77,0.0051,0.0009,the enzymatic activity was restored; also recorded: only slow reactivation,–,–,"pKi (cathepsin L [1]; [15]): ~7.00; Cath. L t1/2 (cathepsin L [1]): 12.8 min; Cath. L ΔEreac (cathepsin L [1]): -1.1 kcal/mol; fold improvement of rhodesain inhibition, acid compared to benzyl ester (rhodesain [6]): ca. 1200 fold; pKi (rhodesain [6]; [16]): ~9.40; pKi (rhodesain [6]; [17]): 9.70; pKi (rhodesain [6]; [18]): 10.00; Rhod. t1/2 (rhodesain [6]): 19.25 min; pKi (rhodesain [6]; [19]): 9.49; pKi (rhodesain [6]; [20]): 9.33; Rhod. ΔEreac (rhodesain [6]): -0.89 kcal/mol; pKi (rhodesain [6]; [21]): ~9.82 and 9.82; Rhod. k3 (rhodesain [6]): 0.0027 s⁻¹; Rhod. k4 (rhodesain [6]): 0.0006 s⁻¹"
COC(=O)[C@H](CC(C)C)NC(=O)[C@H](Cc1ccccc1)NC1=C(Cl)C(=O)c2ccccc2C1=O [Compound 5],–,–,–,–,–,–,–,–,–,–,–,–,–,45,48,–
COC(=O)[C@H](CC(C)C)NC(=O)[C@H](Cc1ccccc1)NC1=C(C#N)C(=O)c2ccccc2C1=O [Compound 6],–,–,–,5.91,–,–,–,–,–,–,–,–,–,40,–,half-life at 250 µM (rhodesain [8]): 10.2 min; turnover curve of absorbance at 400 nm vs. time with rhodesain (rhodesain [8]): hyperbolic turnover curves
CC(C)C[C@H](NC(=O)[C@H](Cc1ccccc1)NC1=C(Cl)C(=O)c2ccccc2C1=O)C(=O)OC(C)(C)C [Compound 7],–,–,–,–,–,–,–,–,–,–,–,–,–,38,51,–
CC(C)C[C@H](NC(=O)[C@H](Cc1ccccc1)NC1=C(C#N)C(=O)c2ccccc2C1=O)C(=O)OC(C)(C)C [Compound 8],–,–,–,–,–,–,–,–,–,–,–,–,–,21,38,–
"CN1CCN(C(=O)N[C@@H](Cc2ccccc2)C(=O)N[C@H](/C=C/S(=O)(=O)c2ccccc2)CCc2ccccc2)CC1 [K11777, reference compound]",–,–,no recovery was observed,–,–,–,–,–,–,–,–,–,the enzyme activity could not be recovered,–,–,–
